ChEMBL document CHEMBL4265889, “Design and synthesis of tetrahydropyridopyrimidine based Toll-Like Receptor (TLR) 7/8 dual agonists” (Bioorg Med Chem Lett, 2018)

Assays:
Cytochrome P450 2C19 = Cytochrome P450 2C19 (Homo sapiens, UniProt P33261); assay: Inhibition of CYP2C19 (unknown origin); type: ADME
Cytochrome P450 3A4 = Cytochrome P450 3A4 (Homo sapiens, UniProt P08684); assay: Inhibition of CYP3A4 (unknown origin); type: ADME
[1] = AUC (0 to last) in C57BL/6 mouse liver at 5 mg/kg, po; type: ADME, organism-based; details: in vivo
Homo sapiens [2] = species: Homo sapiens; assay: Binding affinity to serotonin receptor (unknown origin)
Homo sapiens [3] = species: Homo sapiens; assay: Binding affinity to histamine receptor (unknown origin)
Cytochrome P450 2C8 = target: T1, Cytochrome P450 2C8 (Homo sapiens, UniProt P10632); assay: Inhibition of CYP2C8 (unknown origin); type: ADME
T1 sequence (P10632 whole entry): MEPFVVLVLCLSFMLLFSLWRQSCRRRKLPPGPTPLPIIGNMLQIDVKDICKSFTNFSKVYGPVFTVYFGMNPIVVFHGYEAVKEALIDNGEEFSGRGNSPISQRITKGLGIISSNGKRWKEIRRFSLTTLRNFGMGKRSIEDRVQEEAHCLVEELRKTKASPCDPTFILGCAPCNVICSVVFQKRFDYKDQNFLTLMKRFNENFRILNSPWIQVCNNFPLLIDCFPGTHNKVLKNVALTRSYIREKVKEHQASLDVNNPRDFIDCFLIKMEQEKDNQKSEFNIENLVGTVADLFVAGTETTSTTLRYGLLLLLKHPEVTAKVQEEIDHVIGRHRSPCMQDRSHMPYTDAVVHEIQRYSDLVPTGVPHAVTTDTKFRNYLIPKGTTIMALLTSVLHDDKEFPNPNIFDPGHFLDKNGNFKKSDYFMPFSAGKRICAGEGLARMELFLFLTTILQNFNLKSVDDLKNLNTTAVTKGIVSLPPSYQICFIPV

[4] = Drug metabolism in human liver microsomes at 1 uM after 15 mins; type: ADME, microsome; details: read-out: Drug metabolism
[5] = Cmax in C57BL/6 mouse plasma at 5 mg/kg, po; type: ADME, organism-based; parameters: dose 5 mg/kg, route oral
[6] = Cmax in C57BL/6 mouse liver at 5 mg/kg, po; type: ADME, organism-based; parameters: dose 5 mg/kg, route oral
[7] = target: T2, Toll-like receptor 8 (Homo sapiens) (UniProt Q9NR97); assay: Agonist activity at human TLR8 expressed in HEK293 cells after 6 hrs by NFkappaB-luciferase reporter gene assay; type: cell-based
T2 sequence (whole entry): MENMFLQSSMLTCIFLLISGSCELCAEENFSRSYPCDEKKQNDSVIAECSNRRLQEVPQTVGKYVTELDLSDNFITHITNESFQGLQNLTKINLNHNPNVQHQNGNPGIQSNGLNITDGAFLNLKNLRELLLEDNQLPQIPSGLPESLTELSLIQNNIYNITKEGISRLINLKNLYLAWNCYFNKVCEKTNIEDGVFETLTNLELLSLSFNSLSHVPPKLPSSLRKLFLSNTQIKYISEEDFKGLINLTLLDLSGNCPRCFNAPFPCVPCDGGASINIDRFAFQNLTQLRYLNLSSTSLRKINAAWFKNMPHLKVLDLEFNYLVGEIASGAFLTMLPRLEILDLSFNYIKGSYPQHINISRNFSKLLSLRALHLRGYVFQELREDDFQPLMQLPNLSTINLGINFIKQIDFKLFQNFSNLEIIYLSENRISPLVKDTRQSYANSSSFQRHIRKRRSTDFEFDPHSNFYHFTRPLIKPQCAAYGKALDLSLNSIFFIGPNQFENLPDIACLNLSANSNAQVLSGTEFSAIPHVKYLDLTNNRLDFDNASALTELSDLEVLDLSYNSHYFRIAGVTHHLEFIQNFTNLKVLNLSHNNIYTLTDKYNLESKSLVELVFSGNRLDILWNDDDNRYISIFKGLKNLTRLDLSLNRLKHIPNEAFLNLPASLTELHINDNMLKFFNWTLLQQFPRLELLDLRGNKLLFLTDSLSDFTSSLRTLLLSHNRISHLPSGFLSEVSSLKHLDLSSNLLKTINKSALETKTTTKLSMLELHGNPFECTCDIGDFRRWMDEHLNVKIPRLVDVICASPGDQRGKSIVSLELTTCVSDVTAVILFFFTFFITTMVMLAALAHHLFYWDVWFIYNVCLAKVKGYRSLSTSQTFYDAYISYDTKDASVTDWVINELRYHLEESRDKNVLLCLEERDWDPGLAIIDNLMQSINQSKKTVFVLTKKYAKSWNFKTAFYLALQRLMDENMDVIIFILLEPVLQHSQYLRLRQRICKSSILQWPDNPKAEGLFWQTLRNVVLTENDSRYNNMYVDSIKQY

[8] = Drug metabolism in mouse liver microsomes at 1 uM after 15 mins; type: ADME, microsome; details: read-out: Drug metabolism
Mus musculus = assay: Induction of innate immune response in C57BL/6 mouse assessed as IP-10 Cmax in liver at 5 mg/kg, po; type: functional, organism-based; parameters: dose 5 mg/kg
[9] = Protein binding in mouse plasma; type: ADME, cell-free; details: read-out: PPB (converted)
[10] = Tmax in C57BL/6 mouse plasma at 5 mg/kg, po; type: ADME, organism-based
[11] = target: Voltage-gated inwardly rectifying potassium channel KCNH2 (Homo sapiens, UniProt Q12809); assay: Displacement of 3H-dofetilide from human ERG
Cytochrome P450 1A2 = target: T3, Cytochrome P450 1A2 (Homo sapiens, UniProt P05177); assay: Inhibition of CYP1A2 (unknown origin); type: ADME
T3 sequence (P05177 whole entry): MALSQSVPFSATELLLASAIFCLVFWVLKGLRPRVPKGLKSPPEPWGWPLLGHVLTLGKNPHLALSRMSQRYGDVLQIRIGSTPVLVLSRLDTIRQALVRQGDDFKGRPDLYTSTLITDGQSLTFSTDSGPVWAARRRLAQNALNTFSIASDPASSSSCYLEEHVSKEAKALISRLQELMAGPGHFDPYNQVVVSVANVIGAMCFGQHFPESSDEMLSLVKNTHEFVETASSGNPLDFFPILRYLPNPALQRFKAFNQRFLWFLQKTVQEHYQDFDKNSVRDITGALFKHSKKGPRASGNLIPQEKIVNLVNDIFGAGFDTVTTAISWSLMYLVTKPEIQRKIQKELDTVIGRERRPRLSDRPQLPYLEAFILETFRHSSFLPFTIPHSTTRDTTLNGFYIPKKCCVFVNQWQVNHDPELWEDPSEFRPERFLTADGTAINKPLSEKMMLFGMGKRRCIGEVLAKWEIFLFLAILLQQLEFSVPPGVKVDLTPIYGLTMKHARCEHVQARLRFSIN

Cytochrome P450 2D6 = Cytochrome P450 2D6 (Homo sapiens, UniProt P10635); assay: Inhibition of CYP2D6 (unknown origin); type: ADME
Cytochrome P450 2C9 = Cytochrome P450 2C9 (Homo sapiens, UniProt P11712); assay: Inhibition of CYP2C9 (unknown origin); type: ADME
[12] = AUC (0 to last) in C57BL/6 mouse plasma at 5 mg/kg, po; type: ADME, organism-based; parameters: dose 5 mg/kg, route oral, time 0 - last

Chain of Cytochrome P450 3A4 (P08684 whole entry): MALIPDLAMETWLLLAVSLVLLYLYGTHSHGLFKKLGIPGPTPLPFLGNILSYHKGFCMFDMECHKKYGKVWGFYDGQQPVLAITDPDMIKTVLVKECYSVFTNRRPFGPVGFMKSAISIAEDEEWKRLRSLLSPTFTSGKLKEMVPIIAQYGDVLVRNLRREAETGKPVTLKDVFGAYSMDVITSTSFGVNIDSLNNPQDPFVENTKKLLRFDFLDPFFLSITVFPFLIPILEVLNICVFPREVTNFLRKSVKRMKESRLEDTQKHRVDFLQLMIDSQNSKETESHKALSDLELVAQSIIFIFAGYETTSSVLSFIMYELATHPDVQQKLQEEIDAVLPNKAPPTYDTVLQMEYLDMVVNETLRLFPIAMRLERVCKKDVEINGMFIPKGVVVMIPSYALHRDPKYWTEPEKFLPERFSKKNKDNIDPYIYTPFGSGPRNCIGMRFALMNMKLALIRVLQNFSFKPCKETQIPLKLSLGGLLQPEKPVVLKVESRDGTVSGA
Chain of Cytochrome P450 2C9 (P11712 whole entry): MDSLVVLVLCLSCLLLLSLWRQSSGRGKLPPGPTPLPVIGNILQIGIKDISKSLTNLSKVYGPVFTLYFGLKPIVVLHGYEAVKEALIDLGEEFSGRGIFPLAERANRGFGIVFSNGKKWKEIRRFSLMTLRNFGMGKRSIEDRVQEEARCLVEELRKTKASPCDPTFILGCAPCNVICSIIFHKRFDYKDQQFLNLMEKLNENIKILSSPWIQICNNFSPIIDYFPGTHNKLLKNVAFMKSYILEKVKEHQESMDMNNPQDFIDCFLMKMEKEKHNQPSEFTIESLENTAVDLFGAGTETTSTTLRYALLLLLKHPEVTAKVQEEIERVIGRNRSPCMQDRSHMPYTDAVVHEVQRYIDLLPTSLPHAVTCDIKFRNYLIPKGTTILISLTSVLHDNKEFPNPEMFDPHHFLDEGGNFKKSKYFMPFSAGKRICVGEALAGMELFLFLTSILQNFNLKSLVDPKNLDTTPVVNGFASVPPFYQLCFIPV
Chain of Voltage-gated inwardly rectifying potassium channel KCNH2 (Q12809 whole entry): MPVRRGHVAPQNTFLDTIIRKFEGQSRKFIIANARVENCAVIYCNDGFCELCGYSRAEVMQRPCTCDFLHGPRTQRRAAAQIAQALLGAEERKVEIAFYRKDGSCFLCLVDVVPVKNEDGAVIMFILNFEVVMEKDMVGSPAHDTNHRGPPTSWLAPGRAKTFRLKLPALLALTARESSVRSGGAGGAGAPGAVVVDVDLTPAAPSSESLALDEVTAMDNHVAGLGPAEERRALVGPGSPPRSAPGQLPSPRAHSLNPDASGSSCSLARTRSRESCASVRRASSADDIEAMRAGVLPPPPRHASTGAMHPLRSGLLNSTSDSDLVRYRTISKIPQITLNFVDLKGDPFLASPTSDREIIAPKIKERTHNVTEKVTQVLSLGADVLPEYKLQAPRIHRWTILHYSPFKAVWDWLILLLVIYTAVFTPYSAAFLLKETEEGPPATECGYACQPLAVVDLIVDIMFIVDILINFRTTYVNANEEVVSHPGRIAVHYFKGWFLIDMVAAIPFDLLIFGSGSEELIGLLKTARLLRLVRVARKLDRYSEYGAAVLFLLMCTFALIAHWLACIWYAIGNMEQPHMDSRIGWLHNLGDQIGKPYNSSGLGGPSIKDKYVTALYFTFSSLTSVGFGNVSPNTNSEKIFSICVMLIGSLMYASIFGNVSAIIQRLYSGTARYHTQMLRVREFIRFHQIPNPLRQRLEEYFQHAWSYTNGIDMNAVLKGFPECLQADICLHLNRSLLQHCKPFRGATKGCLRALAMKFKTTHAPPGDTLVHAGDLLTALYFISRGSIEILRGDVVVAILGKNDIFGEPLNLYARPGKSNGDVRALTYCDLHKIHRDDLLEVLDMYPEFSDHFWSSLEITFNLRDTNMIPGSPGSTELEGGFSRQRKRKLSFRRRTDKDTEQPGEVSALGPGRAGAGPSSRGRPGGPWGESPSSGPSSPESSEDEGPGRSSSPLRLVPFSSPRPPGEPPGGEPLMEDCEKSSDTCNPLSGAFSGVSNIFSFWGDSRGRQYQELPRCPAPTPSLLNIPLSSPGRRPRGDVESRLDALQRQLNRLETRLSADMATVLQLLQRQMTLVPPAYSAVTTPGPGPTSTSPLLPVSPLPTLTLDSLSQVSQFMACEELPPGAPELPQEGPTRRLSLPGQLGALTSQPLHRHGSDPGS
Chain of Cytochrome P450 2D6 (P10635 whole entry): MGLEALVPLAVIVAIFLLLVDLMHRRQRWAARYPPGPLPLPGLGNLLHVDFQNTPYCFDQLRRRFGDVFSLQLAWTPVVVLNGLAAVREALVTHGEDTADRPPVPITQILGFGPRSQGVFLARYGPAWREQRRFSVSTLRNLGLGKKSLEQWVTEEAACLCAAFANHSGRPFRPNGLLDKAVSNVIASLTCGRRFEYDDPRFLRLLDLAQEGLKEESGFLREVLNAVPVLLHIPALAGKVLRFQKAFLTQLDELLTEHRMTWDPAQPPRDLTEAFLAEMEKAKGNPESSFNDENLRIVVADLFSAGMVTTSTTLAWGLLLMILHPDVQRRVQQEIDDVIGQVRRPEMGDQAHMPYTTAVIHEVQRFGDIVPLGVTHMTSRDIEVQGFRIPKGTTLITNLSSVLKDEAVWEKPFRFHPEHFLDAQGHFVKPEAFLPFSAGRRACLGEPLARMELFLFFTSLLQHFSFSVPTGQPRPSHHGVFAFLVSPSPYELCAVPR
Chain of Cytochrome P450 2C19 (P33261 whole entry): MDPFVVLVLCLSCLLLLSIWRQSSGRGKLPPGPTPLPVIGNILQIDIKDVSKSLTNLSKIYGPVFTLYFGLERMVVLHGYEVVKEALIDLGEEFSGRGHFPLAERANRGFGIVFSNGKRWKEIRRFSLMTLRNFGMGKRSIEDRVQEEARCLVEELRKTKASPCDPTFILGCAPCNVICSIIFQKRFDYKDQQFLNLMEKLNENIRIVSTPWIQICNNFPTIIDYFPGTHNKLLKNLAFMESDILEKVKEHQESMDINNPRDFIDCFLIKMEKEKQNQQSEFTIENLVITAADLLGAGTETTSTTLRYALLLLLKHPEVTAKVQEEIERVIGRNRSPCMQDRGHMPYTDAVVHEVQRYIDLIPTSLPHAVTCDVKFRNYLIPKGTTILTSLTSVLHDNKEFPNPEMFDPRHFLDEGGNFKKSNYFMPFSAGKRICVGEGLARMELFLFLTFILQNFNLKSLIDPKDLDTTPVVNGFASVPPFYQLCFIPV

Question: Which results are given for CCC[C@@H](CCO)Nc1nc(N)nc2c1CN(C(=O)c1csc(C)n1)CC2?
Answer: IC50 (Cytochrome P450 2C19): > 10 µM; IC50 (Cytochrome P450 3A4): > 10 µM; AUClast [1]: 1410 ng·h/g; Activity (Homo sapiens [2]): > 10 µM; Activity (Homo sapiens [3]): > 10 µM; IC50 (Cytochrome P450 2C8): > 10 µM; metabolised at 0.25 h, 1 µM [4]: 21%; Cmax [5]: 29 ng/mL; Cmax [6]: 711 ng/g; MEC [7]: 3.4 µM; metabolised at 0.25 h, 1 µM [8]: 33%; Cmax (Mus musculus): 75 pg/g; fraction unbound [9]: 0.7; Tmax [10]: 30 min; IC50 [11]: 22 µM; IC50 (Cytochrome P450 1A2): > 10 µM; IC50 (Cytochrome P450 2D6): > 10 µM; IC50 (Cytochrome P450 2C9): > 10 µM; AUC(0-t) [12]: 70 ng·h/mL
